biological target: T1, Aurora-A(h) (Homo sapiens, UniProt O14965); experiment: Aurora-A kinase assay (KinaseProfiler Service Assay Protocols, Millipore; also Kinase Hotspot, Reaction Biology Corp.); type: biochemical; settings: compound concentration 1 μM
T1 construct: purchased Millipore (KinaseProfiler service); also Reaction Biology Corp. (Kinase Hotspot)
T1 sequence (O14965 1-403): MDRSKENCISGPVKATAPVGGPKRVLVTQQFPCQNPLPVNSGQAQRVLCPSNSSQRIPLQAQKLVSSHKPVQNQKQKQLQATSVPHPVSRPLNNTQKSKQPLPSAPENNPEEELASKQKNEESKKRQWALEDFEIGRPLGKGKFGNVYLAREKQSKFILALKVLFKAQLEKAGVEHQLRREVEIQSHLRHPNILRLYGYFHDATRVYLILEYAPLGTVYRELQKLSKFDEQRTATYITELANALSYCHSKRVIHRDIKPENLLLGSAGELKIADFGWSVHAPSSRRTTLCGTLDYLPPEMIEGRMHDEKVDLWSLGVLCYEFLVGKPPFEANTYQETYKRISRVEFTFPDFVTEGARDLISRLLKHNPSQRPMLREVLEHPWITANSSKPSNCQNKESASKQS
Experimental: This example illustrated Aurora Kinase Assays of selected Compounds from this invention (referred to Daniele Fancelli et al, J. Med. Chem., 2006, 49 (24), pp 7247-7251). The KinaseProfiler™ Service Assay Protocols (Millipore) were used to test the kinase inhibiting activity of novel compounds from this invention. To do this, the buffer composition was as: 20 mM MOPS, 1 mM EDTA, 0.01% Brij-35, 5% Glycerol, 0.1% β-mercaptoethanol, 1 mg/mL BSA. Test compounds were initially dissolved in DMSO at the desired concentration, then serially diluted to the kinase assay buffer. In a final reaction volume of 25 μL, Aurora-A(h) (5-10 mU) is incubated with 8 mM MOPS pH 7.0, 0.2 mM EDTA, 200 μM LRRASLG (Kemptide), 10 mM MgAcetate and [γ33P-ATP]. The reaction was initiated by the addition of the MgATP mix. After incubation for 40 minute at room temperature, the reaction was stopped by addition of 5 μL of a 3% phosphoric acid solution. 10 μL of the reaction was then spotted onto a P30 filtermat and washed three times for 5 minutes in 50 mM phosphoric acid and once in methanol prior to drying and scintillation counting. Wells containing substrate but no kinase and wells containing a phosphopeptide control were used to set 0% and 100% phosphorylation value, respectively.
Also Kinase Hotspot SM kinase assay was used to test the compounds for IC50 or % inhibitions (Reaction Biology Corp.). Inhibitor IC50 values were determined by titration of compound at the optimal kinase concentration (Kinase EC50).

Row | Structure (SMILES) | inhibition at 1 µM
1 | CC(=O)Nc1ccc(Sc2nc(CC(C)C)nc(Nc3ncc(C)s3)n2)cc1 [Example 72] | < 50%
2 | CC(=O)Nc1ccc(Sc2nc(Nc3ncc(C)s3)nc(N3CCN(C)CC3)n2)cc1 [Example 73] | > 90%
3 | Cc1cc(Nc2nc(Sc3ccc(NC(=O)C4CC4)cc3)nc(N3CCOCC3)n2)n[nH]1 [Example 88] | > 90%
4 | Cc1cc(Nc2nc(Sc3ccc(C(=O)NC(C)C)cc3)nc(N3CCN(C)CC3)n2)n[nH]1 [Example 115] | > 90%
5 | Cc1cnc(Nc2nc(Sc3ccc(NC(=O)C(C)C)cc3)nc(N3CCN(C)CC3)n2)s1 [Example 71] | > 90%
6 | Cc1cnc(Nc2nc(Sc3ccc(NC(=O)C4CC4)cc3)nc(N(C)CCN(C)C)n2)s1 [Example 40] | > 50%
7 | Cc1cc(Nc2nc(Sc3ccc(NC(=O)C4CC4)cc3)nc(N(C)CCN(C)C)n2)n[nH]1 [Example 92] | > 50%
8 | CC(=O)Nc1ccc(Sc2nc(N3CCN(C)CC3)nc(-n3cc(C)sc3=N)n2)cc1 [Example 67] | < 50%
9 | CCC(=O)Nc1ccc(Sc2nc(Nc3cc(C4CC4)[nH]n3)nc(C3CC3)n2)cc1 [Example 81] | > 90%
10 | CN1CCN(c2nc(Nc3ncc(Cl)s3)nc(Sc3ccc(NC(=O)C4CC4)cc3)n2)CC1 [Example 50] | > 90%
11 | Cc1cnc(Nc2nc(NCCN(C)C)nc(Sc3ccc(NC(=O)C4CC4)cc3)n2)s1 [Example 39] | > 90%
12 | CN1CCN(c2nc(Nc3nncs3)nc(Sc3ccc(NC(=O)C4CC4)cc3)n2)CC1 [Example 11] | < 50%
13 | CCOC(=O)c1cc(Nc2nc(Sc3ccc(NC(=O)C4CC4)cc3)nc(N3CCN(C)CC3)n2)n[nH]1 [Example 30] | > 90%
14 | CCC(=O)Nc1ccc(Sc2nc(CC)nc(Nc3cc(C)[nH]n3)n2)cc1 [Example 83] | > 90%
15 | CCC(=O)Nc1ccc(Sc2nc(C3CC3)nc(-n3cc(C)sc3=N)n2)cc1 [Example 110] | > 50%
16 | Cc1cc(Nc2nc(Sc3ccc(C(=O)NCc4ccc(F)cc4)cc3)nc(N3CCN(C)CC3)n2)n[nH]1 [Example 118] | > 90%
17 | Cc1ccc(Nc2nc(Sc3ccc(NC(=O)C4CC4)cc3)nc(N3CCN(C)CC3)n2)nc1 [Example 122] | > 50%
18 | CC(C)c1cnc(Nc2nc(Sc3ccc(NC(=O)C4CC4)cc3)nc(N3CCN(C)CC3)n2)s1 [Example 52] | > 90%
19 | CCc1nc(Nc2cc(C)[nH]n2)nc(N2CCN(C)CC2)n1 [Example 103] | < 50%
20 | Cc1csc(Nc2nc(Sc3ccc(NC(=O)C4CC4)cc3)nc(N3CCN(C)CC3)n2)n1 [Example 64] | < 50%
21 | CCC(=O)Nc1ccc(Sc2nc(C)nc(Nc3cc(C4CC4)[nH]n3)n2)cc1 [Example 87] | > 90%
22 | CN1CCN(c2nc(Nc3cc(C4CC4)[nH]n3)nc(Sc3ccc(NC(=O)C4CC4)cc3)n2)CC1 [Example 53] | > 90%

Row | Structure (SMILES) | inhibition at 1 µM
23 | Cc1cc(Nc2nc(Sc3ccc(N)cc3)nc(C3CC3)n2)n[nH]1 [Example 45] | > 50%
24 | CCC(=O)Nc1ccc(Sc2nc(Nc3ncc(C)s3)nc(N3CCN(C)CC3)n2)cc1 [Example 114] | > 90%
25 | CN1CCN(c2nc(Nc3cc(C4CCC4)[nH]n3)nc(Sc3ccc(NC(=O)C4CC4)cc3)n2)CC1 [Example 55] | > 90%
26 | Cc1cc(Nc2nc(Sc3ccc(NC(=O)C4CC4)cc3)nc(C3CC3)n2)n[nH]1 [Example 6] | > 90%
27 | CCc1nc(Nc2cc(C)[nH]n2)nc(N2CCN(c3ccncc3)CC2)n1 [Example 13] | > 50%
28 | Cc1cnc(Nc2nc(Sc3ccc(NC(=O)C4CC4)cc3)nc(N3CCN(C)CC3)n2)s1 [Example 10] | > 90%
29 | Cc1nc(Nc2nc(Sc3ccc(NC(=O)C4CC4)cc3)nc(N3CCN(C)CC3)n2)sc1C [Example 61] | < 50%
30 | Cc1cc(Nc2nc(Sc3ccc(NC(=O)C4CC4)cc3)nc(N(C)C)n2)n[nH]1 [Example 127] | > 90%
31 | Cc1cc(Nc2nc(Sc3ccc(NC(=O)C4CC4)cc3)nc(N3CCN(C)CC3)n2)no1 [Example 120] | < 50%
32 | Cc1cn(-c2nc(Sc3ccc(NC(=O)c4ccccc4)cc3)nc(N3CCN(C)CC3)n2)c(=N)s1 [Example 112] | > 50%
33 | Cc1cnc(Nc2nc(Sc3cccc(N)c3)nc(N3CCN(C)CC3)n2)s1 [Example 49] | > 50%
34 | CC(C)c1cc(Nc2nc(Sc3ccc(NC(=O)C4CC4)cc3)nc(N3CCN(C)CC3)n2)n[nH]1 [Example 56] | > 50%
35 | Cc1cc(Nc2nc(Sc3ccc(NC(=O)C4CC4)cc3)nc(N3CCN(c4ccncc4)CC3)n2)n[nH]1 [Example 12] | > 90%
36 | Cc1cc(Nc2nc(Sc3ccc(NC(=O)C4CC4)cc3)nc(N3CCCC3)n2)n[nH]1 [Example 89] | > 90%
37 | Cc1cn(-c2nc(Sc3ccc(NC(=O)C(C)C)cc3)nc(N3CCN(C)CC3)n2)c(=N)s1 [Example 66] | < 50%
38 | Cc1cc(Nc2nc(N)nc(Sc3ccc(NC(=O)C4CC4)cc3)n2)n[nH]1 [Example 97] | > 90%
39 | Cc1cnc(Nc2nc(Sc3ccc(NC(=O)c4ccccc4)cc3)nc(N3CCN(C)CC3)n2)s1 [Example 113] | > 90%
40 | Cc1cnc(Nc2nc(NCCCN3CCOCC3)nc(Sc3ccc(NC(=O)C4CC4)cc3)n2)s1 [Example 38] | > 90%
41 | CC(=O)Nc1ccc(Sc2nc(CC(C)C)nc(-n3cc(C)sc3=N)n2)cc1 [Example 69] | < 50%
42 | Cc1cc(Nc2nc(NCCCN3CCOCC3)nc(Sc3ccc(NC(=O)C4CC4)cc3)n2)n[nH]1 [Example 90] | > 90%
43 | CN1CCN(c2nc(Nc3nc4ccccc4[nH]3)nc(Sc3ccc(NC(=O)C4CC4)cc3)n2)CC1 [Example 9] | > 50%
44 | Cc1nnc(Nc2nc(Sc3ccc(NC(=O)C4CC4)cc3)nc(N3CCN(C)CC3)n2)s1 [Example 77] | < 50%

Row | Structure (SMILES) | inhibition at 1 µM
45 | Cc1cc(Nc2nc(Sc3ccc(C(=O)NC4CC4)cc3)nc(N3CCN(C)CC3)n2)n[nH]1 [Example 106] | > 50%
46 | CCc1nc(Nc2cc(C)[nH]n2)nc(Sc2ccc(NC(=O)C3CC3)cc2)n1 [Example 4] | > 90%
47 | CCc1nc(Nc2ncc(C)s2)nc(N2CCN(C)CC2)n1 [Example 75] | < 50%
48 | Cc1cnc(Nc2nc(Sc3ccc(NC(=O)C4CC4)cc3)nc(N3CCOCC3)n2)s1 [Example 21] | > 90%
49 | CN1CCN(c2nc(Nc3nc[nH]n3)nc(Sc3ccc(NC(=O)C4CC4)cc3)n2)CC1 [Example 8] | < 50%
50 | Cc1cnc(Nc2nc(N3CCN(C)CC3)nc(N3CCN(C)CC3)n2)s1 [Example 47] | < 50%
51 | Cc1cc(Nc2nc(Sc3ccc(NC(=O)C4CC4)cc3)nc(N3CCN(C)CC3)n2)sn1 [Example 78] | < 50%
52 | CN1CCN(c2nc(Nc3nccs3)nc(Sc3ccc(NC(=O)C4CC4)cc3)n2)CC1 [Example 60] | < 50%
53 | CN1CCN(c2nc(Nc3ccc(Br)cn3)nc(Sc3ccc(NC(=O)C4CC4)cc3)n2)CC1 [Example 123] | > 50%
54 | CCc1nc(Nc2cc(C)[nH]n2)nc(Sc2ccc(C(=O)NC3CC3)cc2)n1 [Example 107] | < 50%
55 | CCCCNc1nc(Nc2cc(C)[nH]n2)nc(Sc2ccc(NC(=O)C3CC3)cc2)n1 [Example 93] | > 90%
56 | CCCc1cc(Nc2nc(Sc3ccc(NC(=O)C4CC4)cc3)nc(N3CCN(C)CC3)n2)n[nH]1 [Example 57] | < 50%
57 | Cc1ccnc(Nc2nc(Sc3ccc(NC(=O)C4CC4)cc3)nc(N3CCN(C)CC3)n2)n1 [Example 121] | < 50%
58 | Cc1cnc(Nc2nc(Sc3ccc(NC(=O)C4CC4)cc3)nc(N3CCCCC3)n2)s1 [Example 44] | > 50%
59 | CCC(=O)Nc1ccc(Sc2nc(C)nc(Nc3cc(C)[nH]n3)n2)cc1 [Example 86] | > 90%
60 | Cc1cnc(Nc2nc(Sc3ccc(NC(=O)C4CC4)cc3)nc(N3CCN(CCO)CC3)n2)s1 [Example 19] | > 90%
61 | CCCCNc1nc(Nc2ncc(C)s2)nc(Sc2ccc(NC(=O)C3CC3)cc2)n1 [Example 41] | < 50%
62 | CCC(=O)Nc1ccc(Sc2nc(Nc3cc(C)[nH]n3)nc(C3CC3)n2)cc1 [Example 82] | > 90%
63 | Cc1cc(Nc2nc(Sc3ccc(NC(=O)C4CC4)cc3)nc(N3CCN(C)CC3)n2)n[nH]1 [Example 2] | > 90%
64 | Cc1cnc(Nc2nc(Sc3ccc(N)cc3)nc(N3CCN(C)CC3)n2)s1 [Example 48] | > 50%
65 | CCN(CC)c1nc(Nc2ncc(C)s2)nc(Sc2ccc(NC(=O)C3CC3)cc2)n1 [Example 42] | > 50%
